Experimental data taken from ChEMBL document CHEMBL3868599, “Strategy for designing selective α-l-rhamnosidase inhibitors: Synthesis and biological evaluation of l-DMDP cyclic isothioureas” (Bioorg Med Chem, 2017).
pIC50: −log10 of the molar value.

Key:
[1] = Inhibition of Penicillium decumbens alpha-L-rhamnosidase using p-nitrophenyl-glycoside as substrate by spectrophotometric method
Prunus dulcis [2] = assay: Inhibition of almond beta-glucosidase at 1000 uM using p-nitrophenyl-glycoside as substrate by spectrophotometric method
Bos taurus = organism: Bos taurus; assay: Inhibition of bovine liver beta-glucosidase at 1000 uM using p-nitrophenyl-glycoside as substrate by spectrophotometric method
Homo sapiens [3] = organism: Homo sapiens; assay: Inhibition of human lysosomal beta-glucosidase at 1000 uM using 4-methylumbelliferyl-beta-D-glucopyranoside as substrate preincubated for 45 mins followed by substrate addition measured after 30 mins by fluorescence spectrophotometric method
Aspergillus niger [4] = assay: Inhibition of Aspergillus niger amyloglucosidase assessed as D-glucose level at 1000 uM using maltose as substrate measured after 10 to 30 mins
Beta-galactosidase = biological target: T1, Beta-galactosidase (Bos taurus, UniProt Q58D55); assay: (§1) Inhibition of bovine liver beta-galactosidase using p-nitrophenyl-glycoside as substrate by spectrophotometric method
T1 sequence (Q58D55 whole entry): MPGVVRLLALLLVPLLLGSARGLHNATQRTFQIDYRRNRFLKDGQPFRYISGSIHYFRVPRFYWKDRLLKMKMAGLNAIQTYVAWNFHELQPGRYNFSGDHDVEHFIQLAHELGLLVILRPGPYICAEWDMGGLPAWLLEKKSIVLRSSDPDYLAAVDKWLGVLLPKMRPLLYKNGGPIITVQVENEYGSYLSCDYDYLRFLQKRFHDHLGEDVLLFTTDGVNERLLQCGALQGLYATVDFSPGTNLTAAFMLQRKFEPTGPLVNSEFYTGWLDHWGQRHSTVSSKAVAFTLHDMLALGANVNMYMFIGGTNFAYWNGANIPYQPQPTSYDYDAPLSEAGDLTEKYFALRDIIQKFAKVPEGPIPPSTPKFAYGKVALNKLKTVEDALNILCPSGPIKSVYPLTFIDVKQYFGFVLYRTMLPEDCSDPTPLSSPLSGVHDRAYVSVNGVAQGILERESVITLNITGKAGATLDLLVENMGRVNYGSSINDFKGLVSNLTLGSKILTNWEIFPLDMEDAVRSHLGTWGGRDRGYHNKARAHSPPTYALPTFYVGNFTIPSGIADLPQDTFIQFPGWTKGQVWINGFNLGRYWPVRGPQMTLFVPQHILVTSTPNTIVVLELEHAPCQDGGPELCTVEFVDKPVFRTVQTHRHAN

[5] = biological target: T2, Tissue alpha-L-fucosidase (Bos taurus) (UniProt Q2KIM0); assay: Inhibition of bovine kidney alpha-L-fucosidase at 1000 uM using p-nitrophenyl-glycoside as substrate by spectrophotometric method
T2 sequence (whole entry): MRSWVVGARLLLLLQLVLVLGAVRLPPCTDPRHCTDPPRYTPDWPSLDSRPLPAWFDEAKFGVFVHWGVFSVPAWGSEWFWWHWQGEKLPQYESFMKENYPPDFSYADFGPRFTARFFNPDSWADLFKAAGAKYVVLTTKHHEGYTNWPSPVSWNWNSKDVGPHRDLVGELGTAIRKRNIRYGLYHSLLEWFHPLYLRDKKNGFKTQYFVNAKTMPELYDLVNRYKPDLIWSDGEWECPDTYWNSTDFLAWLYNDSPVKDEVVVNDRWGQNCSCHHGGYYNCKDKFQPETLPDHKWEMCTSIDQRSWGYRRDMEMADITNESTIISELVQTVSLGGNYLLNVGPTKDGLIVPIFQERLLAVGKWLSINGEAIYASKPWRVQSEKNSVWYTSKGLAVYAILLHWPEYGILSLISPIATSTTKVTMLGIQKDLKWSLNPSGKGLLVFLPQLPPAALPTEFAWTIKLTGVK

[6] = biological target: T3, Uncharacterized protein (Sus scrofa) (UniProt I3LIR5); assay: Inhibition of porcine kidney trehalase assessed as D-glucose level at 1000 uM using maltose as substrate measured after 10 to 30 mins
T3 sequence (whole entry): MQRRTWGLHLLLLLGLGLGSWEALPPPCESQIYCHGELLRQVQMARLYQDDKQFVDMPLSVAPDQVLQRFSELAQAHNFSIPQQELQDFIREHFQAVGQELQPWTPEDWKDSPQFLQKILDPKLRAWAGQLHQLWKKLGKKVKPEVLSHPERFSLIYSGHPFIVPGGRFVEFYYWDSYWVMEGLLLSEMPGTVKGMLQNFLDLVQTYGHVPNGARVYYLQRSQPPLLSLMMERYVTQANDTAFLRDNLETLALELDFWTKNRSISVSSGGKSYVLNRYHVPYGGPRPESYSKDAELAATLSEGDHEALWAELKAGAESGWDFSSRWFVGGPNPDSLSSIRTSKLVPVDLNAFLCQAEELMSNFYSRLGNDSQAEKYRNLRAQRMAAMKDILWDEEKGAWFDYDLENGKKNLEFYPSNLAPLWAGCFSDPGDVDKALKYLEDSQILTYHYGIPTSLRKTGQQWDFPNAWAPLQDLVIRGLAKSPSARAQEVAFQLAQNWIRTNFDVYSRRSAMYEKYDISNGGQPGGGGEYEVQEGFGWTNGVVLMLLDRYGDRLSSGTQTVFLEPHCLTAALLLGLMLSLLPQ

Escherichia coli [7] = assay: Inhibition of Escherichia coli beta-glucuronidase at 1000 uM using p-nitrophenyl-glycoside as substrate by spectrophotometric method
[8] = Inhibition of rice alpha-glucosidase using p-nitrophenyl-glycoside as substrate by spectrophotometric method; design: species or system Oryza sativa
[9] = Inhibition of maltase in rat small intestinal brush border membranes assessed as D-glucose level using maltose as substrate measured after 10 to 30 mins
Penicillium decumbens = assay: Inhibition of Penicillium decumbens alpha-L-rhamnosidase at 1000 uM using p-nitrophenyl-glycoside as substrate by spectrophotometric method
[10] = Inhibition of bovine liver beta-glucosidase using p-nitrophenyl-glycoside as substrate by spectrophotometric method; design: species or system Bos taurus
Prunus dulcis [11] = assay: Inhibition of almond beta-glucosidase at 100 uM using p-nitrophenyl-glycoside as substrate by spectrophotometric method
Oryza sativa [12] = assay: Inhibition of rice alpha-glucosidase at 100 uM using p-nitrophenyl-glycoside as substrate by spectrophotometric method
Rattus norvegicus [13] = organism: Rattus norvegicus; assay: Inhibition of rat intestinal maltase assessed as D-glucose level at 100 uM using maltose as substrate measured after 10 to 30 mins
[14] = biological target: T4, Beta-galactosidase (Bos taurus) (UniProt Q58D55); assay: as §1; conditions: concentration not given here
T4 sequence (whole entry): T1 sequence (Q58D55 whole entry)

Aspergillus niger [15] = assay: Inhibition of Aspergillus niger amyloglucosidase assessed as D-glucose level at 100 uM using maltose as substrate measured after 10 to 30 mins
[16] = biological target: T2, Tissue alpha-L-fucosidase (Bos taurus); assay: Inhibition of bovine kidney alpha-L-fucosidase at 100 uM using p-nitrophenyl-glycoside as substrate by spectrophotometric method
[17] = biological target: T3, Uncharacterized protein (Sus scrofa); assay: Inhibition of porcine kidney trehalase assessed as D-glucose level at 100 uM using maltose as substrate measured after 10 to 30 mins
Homo sapiens [18] = organism: Homo sapiens; assay: Inhibition of human lysosomal beta-glucosidase at 100 uM using 4-methylumbelliferyl-beta-D-glucopyranoside as substrate preincubated for 45 mins followed by substrate addition measured after 30 mins by fluorescence spectrophotometric method
Escherichia coli [19] = assay: Inhibition of Escherichia coli beta-glucuronidase at 100 uM using p-nitrophenyl-glycoside as substrate by spectrophotometric method
Saccharomyces cerevisiae = assay: Inhibition of yeast alpha-glucosidase at 1000 uM using p-nitrophenyl-glycoside as substrate by spectrophotometric method
Coffea = assay: Inhibition of coffee bean alpha-galactosidase at 1000 uM using p-nitrophenyl-glycoside as substrate by spectrophotometric method
Escherichia coli [20] = assay: Inhibition of Escherichia coli beta-galactosidase at 1000 uM using p-nitrophenyl-glycoside as substrate by spectrophotometric method
[21] = biological target: T5, Alpha-mannosidase (Canavalia ensiformis) (UniProt C0HJB3); assay: Inhibition of Jack bean alpha-mannosidase at 1000 uM preincubated for 45 mins followed by addition of p-nitrophenyl-glycoside as substrate measured after 30 mins by fluorescence spectrophometry
T5 sequence (whole entry): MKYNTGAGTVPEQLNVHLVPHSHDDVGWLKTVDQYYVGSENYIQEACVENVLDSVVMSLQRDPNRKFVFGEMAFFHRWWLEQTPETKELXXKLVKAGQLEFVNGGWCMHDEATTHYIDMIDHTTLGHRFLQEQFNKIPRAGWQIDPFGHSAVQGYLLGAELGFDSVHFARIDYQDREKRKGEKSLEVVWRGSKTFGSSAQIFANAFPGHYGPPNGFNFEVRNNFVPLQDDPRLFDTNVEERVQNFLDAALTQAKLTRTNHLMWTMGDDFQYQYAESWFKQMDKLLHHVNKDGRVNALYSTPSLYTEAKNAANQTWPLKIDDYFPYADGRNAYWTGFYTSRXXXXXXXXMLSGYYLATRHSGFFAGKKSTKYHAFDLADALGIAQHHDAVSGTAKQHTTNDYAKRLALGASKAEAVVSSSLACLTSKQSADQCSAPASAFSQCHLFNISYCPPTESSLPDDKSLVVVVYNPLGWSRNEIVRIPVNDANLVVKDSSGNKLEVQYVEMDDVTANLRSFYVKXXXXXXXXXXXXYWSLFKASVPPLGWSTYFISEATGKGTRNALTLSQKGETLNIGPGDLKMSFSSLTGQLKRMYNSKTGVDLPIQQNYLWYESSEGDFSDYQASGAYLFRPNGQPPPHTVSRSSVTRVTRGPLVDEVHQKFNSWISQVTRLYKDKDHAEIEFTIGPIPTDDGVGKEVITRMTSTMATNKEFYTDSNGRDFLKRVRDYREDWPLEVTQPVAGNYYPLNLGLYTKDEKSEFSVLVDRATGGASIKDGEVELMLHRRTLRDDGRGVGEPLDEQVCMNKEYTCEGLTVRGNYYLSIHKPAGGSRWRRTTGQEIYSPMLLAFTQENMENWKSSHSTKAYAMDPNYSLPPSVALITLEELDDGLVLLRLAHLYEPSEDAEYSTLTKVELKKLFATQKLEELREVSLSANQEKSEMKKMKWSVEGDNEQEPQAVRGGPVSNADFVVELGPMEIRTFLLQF

Helix pomatia = assay: Inhibition of Helix pomatia beta-mannosidase at 1000 uM using p-nitrophenyl-glycoside as substrate by spectrophotometric method
Oryza sativa [22] = assay: Inhibition of rice alpha-glucosidase at 1000 uM using p-nitrophenyl-glycoside as substrate by spectrophotometric method
Rattus norvegicus [23] = organism: Rattus norvegicus; assay: Inhibition of rat intestinal maltase assessed as D-glucose level at 1000 uM using maltose as substrate measured after 10 to 30 mins
[24] = biological target: T4, Beta-galactosidase (Bos taurus); assay: Inhibition of bovine liver beta-galactosidase at 1000 uM using p-nitrophenyl-glycoside as substrate by spectrophotometric method
[25] = Inhibition of human lysosomal beta-glucosidase using 4-methylumbelliferyl-beta-D-glucopyranoside as substrate preincubated for 45 mins followed by substrate addition measured after 30 mins by fluorescence spectrophotometric method

| SMILES | pIC50 [1] | inhibition (Prunus dulcis [2]) | inhibition (Bos taurus) | inhibition (Homo sapiens [3]) | inhibition (Aspergillus niger [4]) | pIC50 (Beta-galactosidase) | inhibition [5] | inhibition [6] | inhibition (Escherichia coli [7]) | pIC50 [8] | pIC50 [9] | inhibition (Penicillium decumbens) | pIC50 [10] | inhibition (Saccharomyces cerevisiae) | inhibition (Coffea) | inhibition (Escherichia coli [20]) | inhibition [21] | inhibition (Helix pomatia) | inhibition (Oryza sativa [22]) | inhibition (Rattus norvegicus [23]) | further results |
| --- | --- | --- | --- | --- | --- | --- | --- | --- | --- | --- | --- | --- | --- | --- | --- | --- | --- | --- | --- | --- | --- |
| CCCCCC/N=C1/SC[C@H]2[C@H](O)[C@@H](O)[C@H](CO)N12 | 5.28 | < 50% | < 50% | < 50% | < 50% | 3.22 | < 50% | < 50% | < 50% | 3.38 | 3.10 | – | – | – | – | – | – | – | – | – | – |
| CCCCCCCCNC(=S)N1[C@@H](CO)[C@H](O)[C@@H](O)[C@@H]1CO | – | < 50% | – | < 50% | < 50% | 3.58 | < 50% | < 50% | < 50% | 3.00 | 3.00 | < 50% | 3.75 | – | – | – | – | – | – | – | – |
| OC[C@H]1[C@H](O)[C@@H](O)[C@@H]2CS/C(=N/CCCCCCCCCc3ccccc3)N12 | 6.06 | – | – | – | – | – | – | – | – | – | – | – | 4.48 | – | – | – | – | – | – | – | inhibition (Prunus dulcis [11]): < 50%; inhibition (Oryza sativa [12]): < 50%; inhibition (Rattus norvegicus [13]): < 50%; inhibition [14]: < 50%; inhibition (Aspergillus niger [15]): < 50%; inhibition [16]: < 50%; inhibition [17]: < 50%; inhibition (Homo sapiens [18]): < 50%; inhibition (Escherichia coli [19]): < 50% |
| CCCCCCCC/N=C1/SC[C@H]2[C@H](O)[C@@H](O)[C@H](CO)N12 | 5.80 | < 50% | < 50% | < 50% | < 50% | – | < 50% | < 50% | < 50% | – | – | – | – | < 50% | < 50% | < 50% | < 50% | < 50% | < 50% | < 50% | inhibition [24]: < 50% |
| CCCCCCCC/N=C1/SC[C@@H]2[C@@H](O)[C@H](O)[C@@H](CO)N12 | – | < 50% | – | – | < 50% | – | < 50% | < 50% | < 50% | – | – | < 50% | 4.20 | < 50% | < 50% | < 50% | < 50% | < 50% | < 50% | < 50% | pIC50 [25]: 5.62; inhibition [24]: < 50% |
| OC[C@@H]1N[C@@H](CO)[C@H](O)[C@H]1O | – | < 50% | < 50% | < 50% | < 50% | – | – | – | – | – | – | < 50% | – | < 50% | < 50% | < 50% | < 50% | < 50% | – | – | – |
